These results are taken from patent US11970474B2, “Substituted benzodiazoles and use thereof in therapy” (THOMAS HELLEDAYS STIFTELSE FÖR MEDICINSK FORSKNING, priority 2018, dated 2024).

Sequence of OGG1 (O15527 whole entry): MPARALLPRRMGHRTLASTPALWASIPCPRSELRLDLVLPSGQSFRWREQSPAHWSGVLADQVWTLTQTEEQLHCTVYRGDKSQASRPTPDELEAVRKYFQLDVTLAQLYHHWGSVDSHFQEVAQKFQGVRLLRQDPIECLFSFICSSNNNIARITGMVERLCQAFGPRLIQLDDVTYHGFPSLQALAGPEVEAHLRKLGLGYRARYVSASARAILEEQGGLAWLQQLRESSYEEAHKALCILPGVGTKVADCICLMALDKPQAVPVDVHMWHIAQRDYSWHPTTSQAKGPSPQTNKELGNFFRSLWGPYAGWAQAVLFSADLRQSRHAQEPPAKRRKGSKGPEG

In the test the target is OGG1 (Homo sapiens (Human), UniProt O15527). Briefly: In vitro OGG1 activity assay. In kind it is biochemical. To be noted: 800 pM OGG1 enzyme, 2 nM human APEX1, 10 nM 8-oxoA:C substrate. A digest of the protocol:
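Fluorescence-release assay on a duplex oligonucleotide carrying an OGG1 substrate base beside a fluorophore, quenched from the complementary strand. Excess APEX1 cleaves the abasic site left by base excision, melting the duplex and unquenching the fluorophore. Compounds in DMSO were dispensed before enzyme and substrate, and fluorescein signal was read.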
The compound `COc1cc(NC(=O)[C@H]2CC[C@@H](n3c(=O)[nH]c4c(C(=O)N5CCCC5C(N)=O)cccc43)CC2)ccc1C` (stereo partly drawn) [Example 278, 1-{2-Oxo-1-[cis-4-[(3-methoxy-4-methylphenyl)carbamoyl]cyclohexyl]-2,3-dihydro-1H-1,3-benzodiazole-4-carbonyl}pyrrolidine-2-carboxamide] had an IC50 of 221 nM.

Compound `COc1cc(NC(=O)[C@H]2CC[C@@H](n3c(=O)[nH]c4c(C(=O)NCC(O)CO)cccc43)CC2)ccc1C` (stereo partly drawn) [Example 248, N-(2,3-Dihydroxypropyl)-2-oxo-1-[cis-4-[(3-methoxy-4-methylphenyl)carbamoyl]cyclohexyl]-2,3-dihydro-1H-1,3-benzodiazole-4-carboxamide] came in with an IC50 of 6.77 nM. As for `COc1ccc(NC(=O)N2CCC(n3c(=O)[nH]c4c(-c5cccnc5)cccc43)CC2)cc1Cl` [Example 98, N-(3-chloro-4-methoxyphenyl)-4-[2-oxo-4-(pyridin-3-yl)-2,3-dihydro-1H-1,3-benzodiazol-1-yl]piperidine-1-carboxamide], the half-inhibitory concentration (IC50) is 2620 nM. On to `COc1cc(NC(=O)[C@H]2CC[C@@H](n3c(=O)[nH]c4c(NCC(F)F)cccc43)CC2)ccc1C` [Example 324, Cis-4-{4-[(2,2-difluoroethyl)amino]-2-oxo-2,3-dihydro-1H-1,3-benzodiazol-1-yl}-N-(3-methoxy-4-methylphenyl)cyclohexane-1-carboxamide], for which inhibition was half-maximal at 96.9 nM (IC50). Compound `O=c1[nH]c2c(Br)cccc2n1[C@H]1CC[C@@H](C(=O)Nc2cccc(O)c2)CC1` [Example 196, Cis-4-(4-bromo-2-oxo-2,3-dihydro-1H-1,3-benzodiazol-1-yl)-N-(3-hydroxyphenyl)cyclohexane-1-carboxamide] returned an IC50 of 647 nM.

`COc1cc(NC(=O)[C@H]2CC[C@@H](n3c(=O)[nH]c4c(NC(=O)CCN)cccc43)CC2)ccc1C` [Example 284, Cis-4-[4-(3-aminopropanamido)-2-oxo-2,3-dihydro-1H-1,3-benzodiazol-1-yl]-N-(3-methoxy-4-methylphenyl)cyclohexane-1-carboxamide] registered a concentration for half-maximal inhibition (IC50) of 1.73 nM. Compound `O=c1[nH]c2c(Br)cccc2n1[C@H]1CC[C@@H](C(=O)Nc2ccc(F)c(Cl)c2)CC1` [Example 162, (Cis)-4-(4-bromo-2-oxo-2,3-dihydro-1H-1,3-benzodiazol-1-yl)-N-(3-chloro-4-fluorophenyl)cyclohexane-1-carboxamide] showed an IC50 of 1290 nM. Compared with the last compound, the IC50 is about 750-fold higher. The figure for `COc1cc(NC(=O)N2CCC(n3c(=O)[nH]c4c(-c5cncc(N)c5)cccc43)CC2)ccc1C` [Example 97, 4-[4-(5-Aminopyridin-3-yl)-2-oxo-2,3-dihydro-1H-1,3-benzodiazol-1-yl]-N-(3-methoxy-4-methylphenyl)piperidine-1-carboxamide] is 1720 nM; for `COc1cc(NC(=O)N2CCC(n3c(=O)[nH]c4c(-c5cccnc5)cccc43)CC2)ccc1Cl` [Example 102, N-(4-chloro-3-methoxyphenyl)-4-[2-oxo-4-(pyridin-3-yl)-2,3-dihydro-1H-1,3-benzodiazol-1-yl]piperidine-1-carboxamide] it is 2770 nM; for `CCc1ccc(NC(=O)N2CCC(n3c(=O)[nH]c4c(Br)cccc43)CC2)cc1` [Example 42, 4-(4-Bromo-2-oxo-2,3-dihydro-1H-1,3-benzodiazol-1-yl)-N-(4-ethylphenyl)piperidine-1-carboxamide] it is 2410 nM. In the case of `COc1cc(NC(=O)[C@H]2CC[C@@H](n3c(=O)[nH]c4c(NC(=O)CN)cccc43)CC2)ccc1C` [Example 255, Cis-4-[4-(2-aminoacetamido)-2-oxo-2,3-dihydro-1H-1,3-benzodiazol-1-yl]-N-(3-methoxy-4-methylphenyl)cyclohexane-1-carboxamide], the concentration for half-maximal inhibition (IC50) is 30.9 nM. As for `COc1ccc(NC(=O)[C@H]2CC[C@@H](n3c(=O)[nH]c4c(Br)cccc43)CC2)cc1C#N` [Example 161, (Cis)-4-(4-bromo-2-oxo-2,3-dihydro-1H-1,3-benzodiazol-1-yl)-N-(3-cyano-4-methoxyphenyl)cyclohexane-1-carboxamide], the IC50 is 175 nM. Compared with the last compound, the IC50 is about 5.7-fold higher. `CC(=O)Nc1cccc2c1[nH]c(=O)n2[C@H]1CC[C@@H](C(=O)Nc2ccc3cc[nH]c3c2)CC1` [Example 290, Cis-4-(4-acetamido-2-oxo-2,3-dihydro-1H-1,3-benzodiazol-1-yl)-N-(1H-indol-6-yl)cyclohexane-1-carboxamide] gave an IC50 of 239 nM. On to `O=c1[nH]c2c(F)cccc2n1[C@H]1CC[C@@H](C(=O)Nc2ccc3cc[nH]c3c2)CC1` [Example 215, Cis-4-(4-fluoro-2-oxo-2,3-dihydro-1H-1,3-benzodiazol-1-yl)-N-(1H-indol-6-yl)cyclohexane-1-carboxamide], for which it took 580 nM to reach half-maximal inhibition (IC50). This IC50 is about 2.4-fold higher than that of the compound before. For `COc1ccc(NC(=O)N2CCC(n3c(=O)[nH]c4cc(F)ccc43)CC2)cc1Cl` [Example 173, N-(3-Chloro-4-methoxyphenyl)-4-(5-fluoro-2-oxo-2,3-dihydro-1H-1,3-benzodiazol-1-yl)piperidine-1-carboxamide] the value was 2420 nM; for `O=c1[nH]c2c(Br)cccc2n1[C@H]1CC[C@@H](C(=O)Nc2cccc(C(F)(F)F)c2)CC1` [Example 141, (Cis)-4-(4-bromo-2-oxo-2,3-dihydro-1H-1,3-benzodiazol-1-yl)-N-[3-(trifluoromethyl)phenyl]cyclohexane-1-carboxamide], 5480 nM. `N#Cc1ccc(NC(=O)[C@H]2CC[C@@H](n3c(=O)[nH]c4c(Br)cccc43)CC2)cc1` [Example 132, (Cis)-4-(4-bromo-2-oxo-2,3-dihydro-1H-1,3-benzodiazol-1-yl)-N-(4-cyanophenyl)cyclohexane-1-carboxamide]: half-maximal inhibition (IC50) was put at 6830 nM.

The compound `COc1cc(NC(=O)[C@H]2CC[C@@H](n3c(=O)[nH]c4c(NC(=O)c5coc(N)n5)cccc43)CC2)ccc1C` [Example 320, 2-Amino-N-{2-oxo-1-[cis-4-[(3-methoxy-4-methylphenyl)carbamoyl]cyclohexyl]-2,3-dihydro-1H-1,3-benzodiazol-4-yl}-1,3-oxazole-4-carboxamide] came in with an IC50 of 22 nM. This IC50 lies about 310-fold lower than the previous one. For `COc1cc(NC(=O)[C@H]2CC[C@@H](n3c(=O)[nH]c4c(C(=O)NCCN5CCNCC5)cccc43)CC2)ccc1C` [Example 252, 2-Oxo-N-[2-(piperazin-1-yl)ethyl]-1-[cis-4-[(3-methoxy-4-methylphenyl)carbamoyl]cyclohexyl]-2,3-dihydro-1H-1,3-benzodiazole-4-carboxamide] the value was 3.94 nM; for `Nc1cccc(NC(=O)[C@H]2CC[C@@H](n3c(=O)[nH]c4c(Br)cccc43)CC2)c1` [Example 195, Cis-N-(3-aminophenyl)-4-(4-bromo-2-oxo-2,3-dihydro-1H-1,3-benzodiazol-1-yl)cyclohexane-1-carboxamide], 3560 nM; for `COc1cc(NC(=O)[C@H]2CC[C@@H](n3c(=O)[nH]c4c(OCC(=O)O)cccc43)CC2)ccc1C` [Example 242, 2-({2-Oxo-1-[cis-4-[(3-methoxy-4-methylphenyl)carbamoyl]cyclohexyl]-2,3-dihydro-1H-1,3-benzodiazol-4-yl}oxy)acetic acid], 126 nM. For the compound `COc1cc(NC(=O)[C@H]2CC[C@@H](n3c(=O)[nH]c4c(N5CCC(NC(=O)C(C)(C)O)C5)cccc43)CC2)ccc1C` (stereo partly drawn) [Example 317, Cis-4-{4-[3-(2-hydroxy-2-methylpropanamido)pyrrolidin-1-yl]-2-oxo-2,3-dihydro-1H-1,3-benzodiazol-1-yl}-N-(3-methoxy-4-methylphenyl)cyclohexane-1-carboxamide], it took 39.1 nM to reach half-maximal inhibition (IC50).

`COc1ccc(NC(=O)N2CCC(n3c(=O)[nH]c4c(Br)cccc43)C(O)C2)cc1Cl` (centres unmarked) [Example 177, 4-(4-Bromo-2-oxo-2,3-dihydro-1H-1,3-benzodiazol-1-yl)-N-(3-chloro-4-methoxyphenyl)-3-hydroxypiperidine-1-carboxamide] registered an IC50 of 5020 nM. This IC50 lies about 130-fold higher than the previous one.
